Source: patent publication US20140296968A1, “IMPLANTABLE VASCULAR STENT” (Translumina GmbH, priority 2011, published 2014)

Test: release of rapamycin in vivo

CO[C@H]1C[C@@H]2CC[C@@H](C)[C@@](O)(O2)C(=O)C(=O)N2CCCC[C@H]2C(=O)O[C@H]([C@H](C)C[C@@H]2CC[C@@H](O)[C@H](OC)C2)CC(=O)[C@H](C)/C=C(\C)[C@@H](O)[C@@H](OC)C(=O)[C@H](C)C[C@H](C)/C=C/C=C/C=C/1C [rapamycin]
duration of the release of rapamycin: 4 to 6 weeks
